Read-outs that look alike come from different tables or passages of the source.
Tests used:
wild type tobacco plants = details: for effect on non-transgenic plants: sprayed
[1] = test system: Transgenic tobacco plants bearing oxygenase gene constructs but lacking the transit peptide coding sequence; details: sprayed, 0.5 lbs/acre to 5 lbs/acre tested
[2] = test system: transgenic tobacco plants bearing the oxygenase gene constructs with the transit peptide; details: 0.5 lbs/acre to 5 lbs/acre tested
[3] = test system: Transgenic plants containing the three gene construct (oxygenase, ferredoxin and reductase genes)

COc1c(Cl)ccc(Cl)c1C(=O)O [dicamba, 2-methoxy-3,6-dichlorobenzoic acid]
effect on non-transgenic plants (wild type tobacco plants; 0.125 Ib/acre dicamba): reduced growth, withering and severe necrosis
sensitivity of the wild type plants (wild type tobacco plants; 0.5 lbs/acre of dicamba, sprayed at 10-12-leaf stage with non-ionic surfactant): 100%
effect on non-transgenic plants (wild type tobacco plants; same amounts of dicamba as the transgenic plants (0.5 lbs/acre to 5 lbs/acre)): reduced growth, withering and severe necrosis
dicamba treatment to which plants displayed resistance (grew and were healthy) [1]: at least 2.5 lbs/acre
concentration of dicamba at which sprayed plants grew and were healthy [2]: up to 5 lbs/acre
effect on transgenic plants ([3]; 0.125 Ib/acre dicamba, sprayed): grew and were healthy
predicted resistance to dicamba ([3]; predicted from plants with the oxygenase construct alone): ≥ 2.5 Ib/acre

From EP1379539B1, “METHODS AND MATERIALS FOR MAKING AND USING TRANSGENIC DICAMBA-DEGRADING ORGANISMS” (BOARD OF REGENTS OF THE UNIVERSITY OF NEBRASKA, priority 2001, dated 2002)
